Patent US20250018019A1, “TREATMENT OF INTERFERON DRIVEN INFLAMMATION” (The Provost, Fellows, Foundation Scholars and the other …, priority 2023, published 2025)

What was measured:
Format in all cases: cell-based, mouse
[1] = test system: BMDMs; test: ELISA of cytokine release from BMDMs; conditions: LPS 4 h; for LPS-induced IFN-β release: BMDMs pre-treated
Method: (§1) All compounds used DMSO as a vehicle except for 4-hydroxy tamoxifen (EtOH), NAC (PBS), and AOAA for tracing experiments (Media). LPS was used at a concentration of 100 ng/ml for indicated timepoints (2, 3, 4, 6, 8, 24, 48 h). FHIN1 (10 or 20 μM), MMF (50 or 100 μM), DMF (25 μM), AOAA (5 mM), oligomycin (10 μM), CCCP (50 μM) NAC (1 mM), and IMT1 (10 μM) pre-treatments were performed for 3 h prior the addition of LPS. Cells were treated with valinomycin (10 nM) 15 mins before LPS stimulation. Anti-CD210 or IgG control (10 μg/ml) antibodies were added to cells 1 h prior to LPS stimulation. Recombinant mouse IL-10 protein (100 ng/ml) was added to cells at the same time as LPS. Cells were treated with IFN-B1 (220 ng/ml) for 3 h. Cells were treated with C-178 (1 μM) 1 h prior to LPS stimulation or transfection with 2′3′-cGAMP (1.5 μg/ml) for 4 hrs to achieve cGAS-STING activation. Cells were treated with ODN 2088 (1 μM) for 1 hr prior to LPS stimulation or transfection with CPG ODN 1826 (1.5 μg/ml) to achieve TLR9 activation. 3 different timepoints of 4-hydroxy tamoxifen (TAM) (600 nM or 2 μM) or EtOH treatment were performed-these are specified in the individual figure legends. For ‘48 h’ treatments EtOH/TAM was added on day 5 of 6 during the BMDM differentiation protocol. On day 6 they were plated with EtOH/TAM (left overnight) and treated the following day. For ‘72 h’ treatments EtOH/TAM was added on day […] of 6 during the BMDM differentiation protocol. On day 6 they were plated with EtOH/TAM (left overnight) and treated the following day. For ‘96 h’ treatments EtOH/TAM was added on day […] of 6 during the BMDM differentiation protocol. On day 6 they were plated with EtOH/TAM and treated 2 days later.
(§2) Pre-designed silencer select siRNAs for Cgas (s103166), Tmem173 (s91058), Tlr3 (s100579), Tlr9 (s96268), As/(s99640), Tlr7 (s100720), Ddx58 (s106376), Ifih1 (s89787), Nrf2 (s70522), Atf4 (s62689) and negative control (4390843) were ordered from Thermo Fisher. siRNA sequences are given in Table S2. Cells were transfected with 50 nM siRNA using 5 μl lipofectamine RNAiMAX according to manufacturer's instructions (Thermo Fisher). Cells were transfected in medium without serum and antibiotics which was replaced with complete medium 8 hours later. Cells were subsequently left for at least a further 12 hours prior to treatment.
BMDMs were plated in the presence or absence of ultrapure ethidium bromide (100 ng/ml) and incubated for a further 6 days prior to treatment. Depletion of mtDNA was determined by genomic DNA isolation followed by qPCR using primers specific for areas of mitochondrial DNA (D-loop) and areas of mtDNA that are not inserted into nuclear DNA (Non-NUMT).
DuoSet ELISA kits for IL-1β, TNFα, IL-6, IL-10, and GDF15 were purchased from R&D Systems and were carried out according to the manufacturer's instructions with appropriately diluted cell supernatants added to each plate in duplicate or triplicate. IFN-β was determined using DuoSet ELISA kit from R&D Systems or Abcam (ab252363). Quantikine ELISA kit for IFN-β (R&D Systems) was used for determination of IFN-β concentration in serum samples and from human cells, and these were also carried out according to the manufacturer's instructions. Absorbance at 450 nm was quantified using a FLUOstar Optima plate reader. Corrected absorbance values were calculated by subtracting the background absorbance, and cytokine concentrations were subsequently obtained by extrapolation from a standard curve plotted on GraphPad Prism 9.2.0.

[2] = test system: BMDMs; test: Flow cytometry, CellROX and TMRM staining; conditions: BMDMs pre-treated, LPS 4 h; oligomycin 10 μM, CCCP 50 μM, valinomycin 10 nM, MMF 50 or 100 μM
Method: as §1
Cells were plated in 12-well plates and treated as desired. CellROX Green (5 μM, Thermo Fisher) or TMRM (20 nM, Thermo Fisher) was added to cells 30 mins prior to end of cell treatments. Cells were washed once in PBS and scraped into 200 μl FACS buffer (2 mM EDTA, 0.5% FCS in PBS). Acquisition of samples was performed on a BD Accuri C6 flow cytometer. The gating strategy used for all flow cytometry experiments consisted of debris exclusion by FSC-A vs SSC-A analysis and subsequent doublet exclusion by FSC-A vs FSC-H analysis. A sample gating strategy is provided in Supplementary FIG. 2. 10,000 cells was acquired per condition. Mean fluorescence intensity (MFI) was calculated for all cells in each condition using FlowJo v10.

[3] = test system: BMDMs; test: Digitonin fractionation, qPCR of mtDNA and mtRNA
Method: as §1
BMDMs were plated at 0.5×10^6 cells/well and treated as desired. After treatment, cells were washed once with room temperature PBS, before being scraped on ice into ice cold PBS and pelleted at 500×g for 5 mins at 4° C. Supernatant was removed and discarded, and the pellet was resuspended in 400 μl extraction buffer (150 mM NaCl, 50 mM HEPES pH 7.4, 25 μg/ml digitonin). Samples were then placed in a rotating mixer at 4° C. for 10 mins before centrifugation at 2000×g at 4° C. for 5 mins. The resulting supernatant constituted the cytosolic fraction, from which RNA and DNA were isolated using an AllPrep DNA/RNA Mini Kit (Qiagen). Alternatively, the cytosolic fraction was concentrated using Strataclean Resin (Agilent) and analysed by western blot. The pellet constituted a fraction containing membrane-bound organelles which was lysed in RNA lysis buffer for RNA isolation or lysed in western blot lysis buffer for analysis by western blot. To determine the presence of mtRNA and mtDNA in the cytosol, qPCR was performed using primers specific for mitochondrial D-loop on cDNA which had been reverse-transcribed from RNA isolated from the cytosolic fraction (mtRNA) and on DNA isolated from the cytosolic fraction (mtDNA). In both cases, values were normalised using a housekeeping control gene (β-actin) amplified in cDNA which had been reverse-transcribed from RNA isolated from the membrane-bound fraction.

[4] = test system: BMDMs; test: RT-qPCR gene expression in BMDMs
Method: as §1
RNA extraction from cells was carried out using a Purelink™ RNA kit (Invitrogen) according to the manufacturer's instructions. BMDMs were treated as required, and following treatment were instantly lysed in 350 μl RNA lysis buffer. Isolated RNA was quantified using a NanoDrop 2000 spectrophotometer, and RNA concentration was normalised to the lowest concentration across all samples with RNAse-free water. If necessary, samples were DNAse-treated after quantification using DNAse I (Thermo Fisher) according to the manufacturer's instructions. Isolated RNA samples were normalised and converted into cDNA using the High-Capacity cDNA Reverse Transcription Kit (Thermo Fisher) according to manufacturer's instructions. 10 μl of RNA (at a maximum concentration of 100 ng/μl) was added to 10 μl of reverse transcription master mix to complete the reaction mixture. Real-time quantitative PCR was performed on the cDNA generated in the previous step, using primers designed in-house and ordered from Eurofins Genomics, as detailed in Table S2. The reaction was performed in a 96-well qPCR plate by a 7500 Fast Real-Time PCR machine (Thermo Fisher). Relative expression (2^−ΔΔCT) was calculated from the CT values for each sample and gene of interest.
as §2

[5] = test system: BMDMs; test: Immunofluorescence, Mitotracker Red and dsRNA; conditions: BMDMs pre-treated, relative to DMSO control, LPS 4 h
Method: as §1
Cells were plated on 20 mm cover slips in 12-well plates. Cells were treated as required and Mitotracker Red CMXRos (100 nM, Thermo Fisher), was added to medium 30 mins prior to end of cell treatments. After 30 min incubation, cells were washed three times with warm PBS. Cells were subsequently fixed for 10 mins with 4% paraformaldehyde/PBS at 37° C. Cells were washed three times with PBS and permeabilized for 1 hour in block solution (1% BSA, 22.52 mg/ml glycine, 0.1% tween 20 in PBS). Anti-dsRNA antibody (Merck) was diluted 1/60 in block solution and incubated with cells overnight at room temperature. Cells were washed three times with PBS for 5 mins/wash. […] Images were analysed using the LAS X Life Science Microscope Software Platform (Leica). The same microscope instrument settings were used for all samples and all images were analysed using the same settings. […] Quantification of dsRNA or Mitotracker Red CMXRos signal intensity was performed using the measure function in ImageJ 1.53t (NIH).

| Molecule | LPS-induced IFN-β release [1] | mitochondrial membrane potential (MMP), TMRM staining [2] | dsRNA accumulation (immunofluorescence) [5] | further results |
| --- | --- | --- | --- | --- |
| N#CC(C#N)=NNc1cccc(Cl)c1 [CCCP] | boosted | significantly dissipated |  |  |
| Cc1ccccc1-c1cc(=O)oc2cc(OC(C)C(=O)N(C)C)ccc12 (centres unmarked) [IMT1] |  |  |  | effect on the increase in mtRNA with FHIN1 (cytosolic and whole cell fraction) ([3]; BMDMs co-treated with FHIN1 and IMT1 10 μM, LPS 4 h): inhibited in both; effect on the FHIN1-mediated boost in IFN-β release ([1]; BMDMs co-treated with FHIN1 and IMT1 10 μM): abrogated |
| CC(=O)N[C@@H](CS)C(=O)O [NAC, N-acetyl cysteine] |  |  |  | suppression of Il10 by FHIN1 and DMF ([4]; BMDMs, NAC 1 mM together with FHIN1 or DMF, LPS 4 h): abrogated |
| CC[C@H]1/C=C/C=C/C[C@@H](C)[C@H](O)[C@@](C)(O)C(=O)[C@@H](C)[C@H](O)[C@@H](C)C(=O)[C@@H](C)[C@H](O)[C@@H](C)/C=C/C(=O)O[C@@H]2[C@H](C)[C@H](CC1)O[C@]1(CC[C@H](C)[C@H](C[C@@H](C)O)O1)[C@H]2C [oligomycin A, Oligomycin A] | boosted | boosted | accumulation of dsRNA to a similar extent to that observed in cells treated with FHIN1 | mtDNA in cytosolic extracts (D-loop) ([3]; digitonin-fractionated BMDMs): increase; mtRNA in cytosolic extracts ([3]; digitonin-fractionated BMDMs): increased |
| CC(C)[C@@H]1NC(=O)[C@H](C)OC(=O)[C@@H](C(C)C)NC(=O)[C@@H](C(C)C)OC(=O)[C@H](C(C)C)NC(=O)[C@H](C)OC(=O)[C@@H](C(C)C)NC(=O)[C@@H](C(C)C)OC(=O)[C@H](C(C)C)NC(=O)[C@H](C)OC(=O)[C@@H](C(C)C)NC(=O)[C@@H](C(C)C)OC1=O [valinomycin A, valinomycin] | boosted | non-significantly reduced | similarly drove dsRNA accumulation |  |
| IFN-β: recombinant mouse IFN-β1 used to stimulate BMDMs (protein, UniProt P01575 22-182, looked up) Interferon beta: INYKQLQLQERTNIRKCQELLEQLNGKINLTYRADFKIPMEMTEKMQKSYTAFAIQEMLQNVFLVFRNNFSSTGWNETIVVRLLDELHQQTVFLKTVLEEKQEERLTWEMSSTALHLKSYYWRVQRYLKLMKYNSYAWMVVRAEIFRNFLIIRRLTRNFQN |  |  |  | Fh1 expression ([4]; IFN-β-stimulated BMDMs (220 ng/ml, 3 h)): inhibited |
